Test results reported in patent publication US11034659B2, “Pyrimidine derivative” (Daiichi Sankyo Company, Limited, priority 2016, dated 2021).
Counter-ions that a name gives are not always drawn.

System: CuFi-1 cells
Assay: Secretory activity for chloride ions (MQAE fluorescence) in CuFi-1 cells
Type: cell-based
Settings: zinc final concentration 10 μM
Experimental: Measurement of the secretory activity for chloride ions was performed in accordance with a previous report (West and Molloy, 1996). CuFi-1 cells were plated on a 96 well plate in 3×10^4 cells/well and incubated for two nights. After removing the culture medium, 100 μL/well of N-(ethoxycarbonylmethyl)-6-methoxyquinolinium bromide (MQAE) (diluted with culture medium and the concentration adjusted to 5 mM) was added. After the addition of MQAE, the cells were incubated for one night so that the indicator was passively loaded. After the loading, the cells were washed two times with Assay buffer, and 100 μL/well of Assay buffer was added. The secretory capacity for chloride ions was measured using FlexStation 1 (fluorescence wavelength of Ex: 355 nm/Em: 460 nm). In order to measure the basic value, nothing was added for 34 seconds immediately after the start of the measurement. Then, at this point, 100 μL/well of the test compound and zinc (final concentration: 10 μM) diluted with Assay buffer, which is free of chloride ions, was added, and the measurement was continued for 86 seconds (total measurement time: 120 seconds). The secretory capacity for chloride ions was calculated by dividing the average of RFU values in 10 seconds between 110 seconds and 120 seconds after the start of the measurement with the average between 0 second and 34 seconds (the basic value). The secretory activity for chloride ions of the test compound (EC50 value) was calculated by obtaining the secretory capacity for chloride ions at each concentration of the serially diluted test compound, and determining a concentration of the test compound that provides a secretory capacity of 50% from two secretory capacities and concentrations sandwiching 50% of the maximum response of each compound.

[1] = Homo sapiens, CuFi-1, CuFi-1 cells

EC50 [1] [nM] | EC50 (CuFi-1 cells, hydrochloride) [nM] | Structure (SMILES)
17.1 |  | COc1nc(C(=O)O)nc(C)c1Cc1ccc(Cl)cc1Cl [Example 32, 5-(2,4-Dichlorobenzyl)-4-methoxy-6-methylpyrimidine-2-carboxylic acid]
18.4 |  | CCOc1nc(C(=O)O)nc(C)c1Cc1ccc(Cl)cc1Cl [Example 33]
80.1 |  | COc1nc(C(=O)O)nc(C)c1Oc1ccc(Cl)cc1Cl [Example 34]
29.3 |  | CCOc1nc(C(=O)O)nc(C)c1Oc1ccc(Cl)cc1Cl [Example 35]
80.6 |  | COc1nc(C(=O)O)nc(C)c1Sc1ccc(Cl)cc1Cl [Example 36]
30.3 |  | CCc1nc(C(=O)O)nc(OC)c1Sc1ccc(Cl)cc1Cl [Example 37]
5.5 |  | CCc1nc(C(=O)O)nc(OC)c1Cc1ccccc1Cl [Example 39]
8.1 |  | CCc1nc(C(=O)O)nc(OC)c1Cc1ccc(F)cc1Cl [Example 40]
16.3 |  | CCc1nc(C(=O)O)nc(OC)c1Cc1cccc(Cl)c1Cl [Example 41]
7.6 |  | CCc1nc(C(=O)O)nc(OC)c1Cc1ccc(Cl)cc1F [Example 42]
66.7 |  | CCc1nc(C(=O)O)nc(OC)c1Cc1ccccc1F [Example 43]
9.4 |  | CCc1nc(C(=O)O)nc(OC)c1Cc1cccc(F)c1Cl [Example 44]
14.7 |  | CCCc1nc(C(=O)O)nc(OC)c1Cc1ccccc1Cl [Example 45, hydrochloride]
15.9 |  | CCCc1nc(C(=O)O)nc(OC)c1Cc1ccc(F)cc1Cl [Example 46]
8.6 |  | CCCc1nc(C(=O)O)nc(OC)c1Cc1ccc(Cl)cc1F [Example 47]
9.4 |  | CCOc1nc(C(=O)O)nc(CC)c1Cc1cccc(Cl)c1Cl [Example 48, 5-(2,3-Dichlorobenzyl)-4-ethoxy-6-ethylpyrimidine-2-carboxylic acid]
24.8 |  | CCOc1nc(C(=O)O)nc(C)c1Cc1ccc(F)cc1Cl [Example 49]

EC50 [1] [nM] | EC50 (CuFi-1 cells, hydrochloride) [nM] | Structure (SMILES)
10.2 |  | CCOc1nc(C(=O)O)nc(C)c1Cc1cccc(Cl)c1Cl [Example 50]
8.2 |  | CCOc1nc(C(=O)O)nc(CC)c1Cc1ccc(Cl)cc1F [Example 51]
15.8 |  | CCOc1nc(C(=O)O)nc(C)c1Cc1ccccc1Cl [Example 52, 5-(2-Chlorobenzyl)-4-ethoxy-6-methylpyrimidine-2-carboxylic acid hydrochloride]
15.8 |  | CCCOc1nc(C(=O)O)nc(C)c1Cc1ccccc1Cl [Example 53]
16 |  | CCOc1nc(C(=O)O)nc(C)c1Cc1ccc(Cl)cc1F [Example 56]
20.8 |  | CCOc1nc(C(=O)O)nc(C)c1Cc1ccc(OC)cc1Cl [Example 57]
13 |  | CCCc1nc(C(=O)O)nc(OCC)c1Cc1ccc(Cl)cc1F [Example 58]
12 |  | CCOc1nc(C(=O)O)nc(CC)c1Cc1cccc(Cl)c1F [Example 60]
11.4 |  | CCOc1nc(C(=O)O)nc(CC)c1Cc1cccc(F)c1Cl [Example 61]
4.9 |  | CCOc1nc(C(=O)O)nc(CC)c1Cc1ccccc1Cl [Example 62]
4.8 |  | CCc1nc(C(=O)O)nc(OCCCF)c1Cc1ccccc1Cl [Example 63]
14.9 |  | CCCOc1nc(C(=O)O)nc(CC)c1Cc1ccccc1Cl [Example 64]
17.4 |  | COc1nc(C(=O)O)nc(C)c1Cc1cccc(Cl)c1Cl [Example 66]
15.9 |  | COc1ccc(Cc2c(C)nc(C(=O)O)nc2OC)c(Cl)c1 [Example 67]
4 |  | COc1nc(C(=O)O)nc(C)c1Cc1ccc(C(F)(F)F)cc1Cl [Example 68]
26.7 |  | COc1nc(C(=O)O)nc(C)c1Cc1ccc(F)cc1Cl [Example 69]
59.9 |  | COc1nc(C(=O)O)nc(C(C)C)c1Cc1ccccc1Cl [Example 70]

The next lines start with the compound.

Structure (SMILES) | EC50 [1] [nM] | EC50 (CuFi-1 cells, hydrochloride) [nM]
CCNc1nc(C(=O)O)nc(C)c1Cc1ccc(Cl)cc1Cl [Example 1, 5-(2,4-Dichlorobenzyl)-4-(ethylamino)-6-methylpyrimidine-2-carboxylic acid hydrochloride] | 9.4 | 
CCCNc1nc(C(=O)O)nc(C)c1Cc1ccc(Cl)cc1Cl [Example 2, 5-(2,4-Dichlorobenzyl)-4-methyl-6-(n-propylamino)pyrimidine-2-carboxylic acid hydrochloride] | 24.2 | 
CCN(CC)c1nc(C(=O)O)nc(C)c1Cc1ccc(Cl)cc1Cl [Example 3, 5-(2,4-Dichlorobenzyl)-4-(diethylamino)-6-methylpyrimidine-2-carboxylic acid hydrochloride] | 53 | 
Cc1nc(C(=O)O)nc(N[C@@H](C)C(N)=O)c1Cc1ccc(Cl)cc1Cl [Example 4, (S)-4-((1-Amino-1-oxopropan-2-yl)amino)-5-(2,4-dichlorobenzyl)-6-methylpyrimidine-2-carboxylic acid hydrochloride] | 19.6 | 
Cc1nc(C(=O)O)nc(NCCCOC(C)C)c1Cc1ccc(Cl)cc1Cl [Example 5, 5-(2,4-Dichlorobenzyl)-4-((3-isopropoxypropyl)amino)-6-methylpyrimidine-2-carboxylic acid] | 30.3 | 
Cc1nc(C(=O)O)nc(NCC(C)(C)O)c1Cc1ccc(Cl)cc1Cl [Example 6, 5-(2,4-Dichlorobenzyl)-4-((2-hydroxy-2-methylpropyl)amino)-6-methylpyrimidine-2-carboxylic acid] | 50.3 | 
Cc1nc(C(=O)O)nc(N)c1Cc1ccc(Cl)cc1Cl [Example 7, 4-Amino-5-(2,4-dichlorobenzyl)-6-methylpyrimidine-2-carboxylic acid trifluoroacetate] | 41.7 | 
Cc1nc(C(=O)O)nc(NCC(=O)O)c1Cc1ccc(Cl)cc1Cl [Example 8, 4-((Carboxymethyl)amino)-5-(2,4-dichlorobenzyl)-6-methylpyrimidine-2-carboxylic acid hydrochloride] | 50.6 | 
CCNc1nc(C(=O)O)nc(C(C)C)c1Cc1ccc(Cl)cc1Cl [Example 9, 5-(2,4-Dichlorobenzyl)-4-(ethylamino)-6-isopropylpyrimidine-2-carboxylic acid] | 5.5 | 
CCNc1nc(C(=O)O)nc(C2CC2)c1Cc1ccc(Cl)cc1Cl [Example 10, 4-Cyclopropyl-5-(2,4-dichlorobenzyl)-6-(ethylamino)pyrimidine-2-carboxylic acid] | 7.3 | 
CCc1nc(C(=O)O)nc(NC)c1Cc1ccccc1Cl [Example 11, 5-(2-Chlorobenzyl)-4-ethyl-6-(methylamino)pyrimidine-2-carboxylic acid] | 11.1 | 
CCNc1nc(C(=O)O)nc(CC)c1Cc1ccccc1Cl [Example 12, 5-(2-Chlorobenzyl)-4-ethyl-6-(ethylamino)pyrimidine-2-carboxylic acid] | 6.7 | 
CNc1nc(C(=O)O)nc(C(C)C)c1Cc1ccccc1Cl [Example 13, 5-(2-Chlorobenzyl)-4-isopropyl-6-(methylamino)pyrimidine-2-carboxylic acid] | 5.6 | 
CCNc1nc(C(=O)O)nc(C(C)C)c1Cc1ccccc1Cl [Example 14, 5-(2-Chlorobenzyl)-4-(ethylamino)-6-isopropylpyrimidine-2-carboxylic acid] | 5 | 
CCNc1nc(C(=O)O)nc(CC)c1Cc1ccc(Cl)cc1Cl [Example 15, 5-(2,4-Dichlorobenzyl)-4-ethyl-6-(ethylamino)pyrimidine-2-carboxylic acid] | 10.8 | 
CCNc1nc(C(=O)O)nc(COC)c1Cc1ccc(Cl)cc1Cl [Example 16, 5-(2,4-Dichlorobenzyl)-4-(ethylamino)-6-(methoxymethyl)pyrimidine-2-carboxylic acid] | 52.7 | 

Structure (SMILES) | EC50 [1] [nM] | EC50 (CuFi-1 cells, hydrochloride) [nM]
CNc1nc(C(=O)O)nc(C)c1Oc1ccc(Cl)cc1Cl [Example 17, 5-(2,4-Dichlorophenoxy)-4-methyl-6-(methylamino)pyrimidine-2-carboxylic acid] | 15.7 | 
CCNc1nc(C(=O)O)nc(C)c1Sc1ccccc1Cl [Example 18, 5-((2-Chlorophenyl)thio)-4-(ethylamino)-6-methylpyrimidine-2-carboxylic acid] | 4.6 | 
CCNc1nc(C(=O)O)nc(C(C)C)c1Sc1ccccc1Cl [Example 19] | 13.1 | 
CCNc1nc(C(=O)O)nc(CC)c1Sc1ccccc1Cl [Example 20] | 5.9 | 
CCNc1nc(C(=O)O)nc(CC)c1Sc1ccc(Cl)cc1Cl [Example 21] | 18.6 | 
CCNc1nc(C(=O)O)nc(C)c1Sc1ccccc1Cl [Example 22, 5-((2-Chlorophenyl)thio)-4-(ethylamino)-6-methylpyrimidine-2-carboxylic acid hydrochloride] |  | 7.1
CNc1nc(C(=O)O)nc(C)c1Sc1ccccc1 [Example 23] | 86 | 
CCNc1nc(C(=O)O)nc(C)c1Sc1ccccc1C(F)(F)F [Example 24] | 12.9 | 
CCNc1nc(C(=O)O)nc(C)c1Sc1ccccc1F [Example 25] | 14.6 | 
CNc1nc(C(=O)O)nc(C)c1Sc1ccccc1C(C)C [Example 26] | 14.4 | 
CNc1nc(C(=O)O)nc(C)c1Sc1ccccc1C [Example 27] | 14 | 
CNc1nc(C(=O)O)nc(C)c1Sc1cccc(Cl)c1Cl [Example 28] | 2.8 | 
CNc1nc(C(=O)O)nc(C)c1Sc1ccc(F)cc1Cl [Example 29] | 6.9 | 
Cc1nc(C(=O)O)nc(NC(C)C)c1Sc1ccccc1Cl [Example 30] | 9.5 | 
CCNc1nc(C(=O)O)nc(C)c1Oc1ccc(Cl)cc1Cl [Example 31] | 34.9 | 
